Article PMC4579270, “Identification and Characterization of an Irreversible Inhibitor of CDK2” (Chemistry & Biology, 2015)
Like-named read-outs stand apart in the source and are kept apart here.

How the values were obtained:
Format in all cases: biochemical
[1] = target: MNK2 (Homo sapiens, UniProt Q9HBH9); test: Dundee protein kinase screen; details: MNK2, 1µM; read-out: %Remaining activity at 1µM NU6300
Method: (§1) Prior to determining its cellular activity, we carried out a screen to assess its selectivity against a panel of 131 protein kinases under conditions that would not distinguish between a reversible or irreversible mode of action. […] These 13 kinases and 29 additional kinases, selected for their known sensitivity to other inhibitors within the purine series, were then tested in a modified screening format in which the assay was repeated following a 4-hr pre-incubation (Table S3B). […] However, conformational flexibility around the active site may promote such an interaction with a residue from another part of the structure ([Martin et al., 2012]).
(§2) Table S3, Related to Figure 4. NCL-0006300 protein kinase selectivity. (A) NU6300 was tested at a single concentration of 1µM against 131 protein kinases present in a Dundee protein kinase screen (Bain et al., 2007). Values given are % activity remaining and are the average of duplicate measurements: 0-25% (red), 26-50% (yellow), 51-80% […]
(§3) (black) and above 81% (green). […]

[2] = target: MST3 (Homo sapiens, UniProt Q9Y6E0); test: Dundee protein kinase screen; details: MST3, 1µM; read-out: %Remaining activity at 1µM NU6300
Method: as §1, §2, §3

[3] = target: T1, PDK1 (Homo sapiens, UniProt O15530); test: Dundee protein kinase screen; details: PDK1, 1µM; read-out: %Remaining activity at 1µM NU6300
T1 sequence (O15530 1-556): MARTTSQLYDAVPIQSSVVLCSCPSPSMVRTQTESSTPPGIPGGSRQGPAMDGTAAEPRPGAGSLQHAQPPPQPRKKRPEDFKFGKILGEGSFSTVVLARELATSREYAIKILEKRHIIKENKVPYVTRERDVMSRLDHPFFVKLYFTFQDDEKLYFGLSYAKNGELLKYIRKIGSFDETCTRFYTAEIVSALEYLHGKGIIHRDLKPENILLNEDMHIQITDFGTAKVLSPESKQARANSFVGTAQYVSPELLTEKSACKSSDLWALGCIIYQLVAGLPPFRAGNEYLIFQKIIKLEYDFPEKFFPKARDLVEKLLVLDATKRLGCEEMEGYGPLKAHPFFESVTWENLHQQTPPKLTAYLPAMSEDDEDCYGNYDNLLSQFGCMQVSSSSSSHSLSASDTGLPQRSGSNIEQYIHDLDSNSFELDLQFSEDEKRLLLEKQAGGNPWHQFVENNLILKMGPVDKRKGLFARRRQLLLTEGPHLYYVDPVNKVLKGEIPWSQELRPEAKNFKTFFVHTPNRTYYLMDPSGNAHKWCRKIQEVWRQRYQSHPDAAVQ
Method: as §1, §2, §3

[4] = target: PKBα (Homo sapiens, UniProt P31749); test: Dundee protein kinase screen; details: read-out: %Remaining activity at 1µM NU6300
Method: as §1, §2, §3

[5] = target: PKCγ (Homo sapiens, UniProt P05129); test: Dundee protein kinase screen; details: read-out: %Remaining activity at 1µM NU6300
Method: as §1, §2, §3

[6] = target: RSK2 (Homo sapiens, UniProt P51812); test: Dundee protein kinase screen; details: RSK2, 1µM; read-out: %Remaining activity at 1µM NU6300
Method: as §1, §2, §3

[7] = target: SIK2 (Homo sapiens, UniProt Q9H0K1); test: Dundee protein kinase screen; details: SIK2, 1µM; read-out: %Remaining activity at 1µM NU6300
Method: as §1, §2, §3

[8] = target: T2, TAK1 (Homo sapiens, UniProt O43318); test: Dundee protein kinase screen; details: TAK1, 1µM; read-out: %Remaining activity at 1µM NU6300
T2 sequence (O43318 1-303 limits assumed): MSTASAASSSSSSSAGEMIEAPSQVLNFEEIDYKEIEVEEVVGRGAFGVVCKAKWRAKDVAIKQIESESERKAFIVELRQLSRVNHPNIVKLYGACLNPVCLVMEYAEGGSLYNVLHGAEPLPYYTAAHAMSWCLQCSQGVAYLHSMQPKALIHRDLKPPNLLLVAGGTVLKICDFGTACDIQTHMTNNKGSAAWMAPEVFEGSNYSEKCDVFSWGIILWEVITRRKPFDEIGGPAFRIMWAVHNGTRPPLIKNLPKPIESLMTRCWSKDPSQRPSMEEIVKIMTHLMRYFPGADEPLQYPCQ
Method: as §1, §2, §3

[9] = target: YES1 (Homo sapiens, UniProt P07947); test: Dundee protein kinase screen; details: YES1, 1µM; read-out: %Remaining activity at 1µM NU6300
Method: as §1, §2, §3

[10] = target: p38β MAPK (Homo sapiens, UniProt Q15759); test: Dundee protein kinase screen; details: read-out: %Remaining activity at 1µM NU6300
Method: as §1, §2, §3

[11] = target: T2, TAK1; test: Dundee kinase screen re-test (standard format and 4 hour pre-incubation); details: TAK1, 0.5µM
Method: as §1
(§4) Table S3, Related to Figure 4. NCL-0006300 protein kinase selectivity. […]
Dundee protein kinase screen (Bain et al., 2007). Values given are % activity remaining and are the average of duplicate measurements: 0-25% (red), 26-50% (yellow), 51-80% […]
as §3
(§5) (B) Selected kinases were re-tested in the Dundee kinase screen against NU6300 at a single concentration of 0.5 µM both in the standard assay format and following a 4 hour pre-incubation in the presence of NU6300. Kinases which have very low activity after the 4 hour incubation so that results might not be wholly reliable are boxed in salmon. Kinases where the activity after a 4 hour pre-incubation is < 50% that in the standard assay format are highlighted in red.

[12] = test system: GCK (MAP4K3); test: as above
Method: as §1, §4, §5

Chain of MNK2 (Q9HBH9 whole entry): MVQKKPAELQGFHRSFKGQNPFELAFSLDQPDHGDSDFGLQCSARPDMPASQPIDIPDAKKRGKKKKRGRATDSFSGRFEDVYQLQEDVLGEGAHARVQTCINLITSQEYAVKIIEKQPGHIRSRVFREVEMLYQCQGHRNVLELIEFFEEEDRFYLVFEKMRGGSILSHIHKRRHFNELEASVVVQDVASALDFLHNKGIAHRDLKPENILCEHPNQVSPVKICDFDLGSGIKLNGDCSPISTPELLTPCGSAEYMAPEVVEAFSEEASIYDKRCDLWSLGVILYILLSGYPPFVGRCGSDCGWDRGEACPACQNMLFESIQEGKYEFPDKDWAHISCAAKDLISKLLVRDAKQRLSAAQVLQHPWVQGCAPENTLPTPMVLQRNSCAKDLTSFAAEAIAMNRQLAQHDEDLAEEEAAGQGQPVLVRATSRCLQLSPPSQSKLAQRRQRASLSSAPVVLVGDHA
Chain of p38β MAPK (Q15759 whole entry): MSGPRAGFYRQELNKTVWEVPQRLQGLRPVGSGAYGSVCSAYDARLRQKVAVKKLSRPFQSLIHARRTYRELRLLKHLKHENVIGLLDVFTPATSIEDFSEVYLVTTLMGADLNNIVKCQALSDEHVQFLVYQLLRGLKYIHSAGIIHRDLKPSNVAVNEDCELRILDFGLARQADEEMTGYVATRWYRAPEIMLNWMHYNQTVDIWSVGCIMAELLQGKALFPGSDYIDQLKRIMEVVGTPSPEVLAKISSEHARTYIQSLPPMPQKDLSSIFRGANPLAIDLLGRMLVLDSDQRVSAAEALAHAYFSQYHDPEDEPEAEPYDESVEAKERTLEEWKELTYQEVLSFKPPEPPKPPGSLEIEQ
Chain of PKBα (P31749 whole entry): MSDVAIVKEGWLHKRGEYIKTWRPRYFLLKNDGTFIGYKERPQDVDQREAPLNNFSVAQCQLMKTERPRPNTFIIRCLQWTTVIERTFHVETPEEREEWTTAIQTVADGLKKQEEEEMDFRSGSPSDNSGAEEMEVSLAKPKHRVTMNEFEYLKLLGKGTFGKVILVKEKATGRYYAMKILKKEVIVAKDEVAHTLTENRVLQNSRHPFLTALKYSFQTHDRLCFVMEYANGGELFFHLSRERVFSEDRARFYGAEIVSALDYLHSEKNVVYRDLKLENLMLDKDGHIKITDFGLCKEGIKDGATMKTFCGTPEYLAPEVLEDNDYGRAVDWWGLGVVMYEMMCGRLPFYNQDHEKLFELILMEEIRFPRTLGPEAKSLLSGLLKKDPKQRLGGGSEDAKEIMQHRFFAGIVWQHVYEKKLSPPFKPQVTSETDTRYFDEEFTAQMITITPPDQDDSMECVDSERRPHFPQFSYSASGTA
Chain of YES1 (P07947 whole entry): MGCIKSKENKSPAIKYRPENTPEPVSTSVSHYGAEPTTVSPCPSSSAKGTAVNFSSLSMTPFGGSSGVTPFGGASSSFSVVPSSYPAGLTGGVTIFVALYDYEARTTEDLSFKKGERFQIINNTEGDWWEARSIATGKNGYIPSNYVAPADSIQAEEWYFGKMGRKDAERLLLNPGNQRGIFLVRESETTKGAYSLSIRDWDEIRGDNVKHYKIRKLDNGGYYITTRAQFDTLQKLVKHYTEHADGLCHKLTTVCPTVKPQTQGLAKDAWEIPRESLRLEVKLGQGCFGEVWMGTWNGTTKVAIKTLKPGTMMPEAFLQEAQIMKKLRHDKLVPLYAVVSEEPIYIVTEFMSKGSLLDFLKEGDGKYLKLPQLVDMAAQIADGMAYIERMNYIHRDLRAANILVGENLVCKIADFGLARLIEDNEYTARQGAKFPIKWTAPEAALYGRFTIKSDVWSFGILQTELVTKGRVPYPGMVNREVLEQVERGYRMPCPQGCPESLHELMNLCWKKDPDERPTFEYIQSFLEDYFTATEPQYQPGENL
Chain of MST3 (Q9Y6E0 whole entry): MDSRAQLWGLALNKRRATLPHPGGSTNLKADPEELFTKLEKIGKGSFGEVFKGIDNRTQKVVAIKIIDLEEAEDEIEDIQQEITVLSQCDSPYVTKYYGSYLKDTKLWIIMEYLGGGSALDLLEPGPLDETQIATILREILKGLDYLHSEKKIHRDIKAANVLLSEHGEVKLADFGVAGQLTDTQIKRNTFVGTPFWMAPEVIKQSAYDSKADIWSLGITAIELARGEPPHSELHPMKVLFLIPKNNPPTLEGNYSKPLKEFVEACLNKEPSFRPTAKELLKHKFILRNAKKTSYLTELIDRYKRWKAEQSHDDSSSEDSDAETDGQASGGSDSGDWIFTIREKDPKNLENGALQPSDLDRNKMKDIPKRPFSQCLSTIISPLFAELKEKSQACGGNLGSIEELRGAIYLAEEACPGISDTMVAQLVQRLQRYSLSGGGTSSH
Chain of RSK2 (P51812 whole entry): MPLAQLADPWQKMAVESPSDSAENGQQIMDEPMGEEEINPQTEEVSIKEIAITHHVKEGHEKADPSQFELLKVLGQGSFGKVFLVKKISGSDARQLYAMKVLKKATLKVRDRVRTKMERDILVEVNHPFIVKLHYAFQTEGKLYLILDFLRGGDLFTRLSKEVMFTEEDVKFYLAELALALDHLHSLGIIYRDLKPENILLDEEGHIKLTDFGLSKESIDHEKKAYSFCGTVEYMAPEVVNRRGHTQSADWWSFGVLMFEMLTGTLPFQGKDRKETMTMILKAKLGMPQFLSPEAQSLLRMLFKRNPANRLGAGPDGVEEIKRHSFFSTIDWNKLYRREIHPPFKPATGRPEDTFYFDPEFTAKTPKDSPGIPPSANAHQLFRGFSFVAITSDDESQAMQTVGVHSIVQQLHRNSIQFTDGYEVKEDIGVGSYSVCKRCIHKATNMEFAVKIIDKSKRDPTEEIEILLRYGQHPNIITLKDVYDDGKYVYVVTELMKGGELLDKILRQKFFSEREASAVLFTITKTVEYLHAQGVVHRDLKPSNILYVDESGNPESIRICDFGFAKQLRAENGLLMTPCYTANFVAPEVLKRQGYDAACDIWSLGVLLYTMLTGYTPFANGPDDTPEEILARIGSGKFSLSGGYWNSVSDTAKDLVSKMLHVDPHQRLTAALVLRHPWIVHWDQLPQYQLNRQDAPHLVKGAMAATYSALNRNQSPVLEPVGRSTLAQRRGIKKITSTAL
Chain of SIK2 (Q9H0K1 whole entry): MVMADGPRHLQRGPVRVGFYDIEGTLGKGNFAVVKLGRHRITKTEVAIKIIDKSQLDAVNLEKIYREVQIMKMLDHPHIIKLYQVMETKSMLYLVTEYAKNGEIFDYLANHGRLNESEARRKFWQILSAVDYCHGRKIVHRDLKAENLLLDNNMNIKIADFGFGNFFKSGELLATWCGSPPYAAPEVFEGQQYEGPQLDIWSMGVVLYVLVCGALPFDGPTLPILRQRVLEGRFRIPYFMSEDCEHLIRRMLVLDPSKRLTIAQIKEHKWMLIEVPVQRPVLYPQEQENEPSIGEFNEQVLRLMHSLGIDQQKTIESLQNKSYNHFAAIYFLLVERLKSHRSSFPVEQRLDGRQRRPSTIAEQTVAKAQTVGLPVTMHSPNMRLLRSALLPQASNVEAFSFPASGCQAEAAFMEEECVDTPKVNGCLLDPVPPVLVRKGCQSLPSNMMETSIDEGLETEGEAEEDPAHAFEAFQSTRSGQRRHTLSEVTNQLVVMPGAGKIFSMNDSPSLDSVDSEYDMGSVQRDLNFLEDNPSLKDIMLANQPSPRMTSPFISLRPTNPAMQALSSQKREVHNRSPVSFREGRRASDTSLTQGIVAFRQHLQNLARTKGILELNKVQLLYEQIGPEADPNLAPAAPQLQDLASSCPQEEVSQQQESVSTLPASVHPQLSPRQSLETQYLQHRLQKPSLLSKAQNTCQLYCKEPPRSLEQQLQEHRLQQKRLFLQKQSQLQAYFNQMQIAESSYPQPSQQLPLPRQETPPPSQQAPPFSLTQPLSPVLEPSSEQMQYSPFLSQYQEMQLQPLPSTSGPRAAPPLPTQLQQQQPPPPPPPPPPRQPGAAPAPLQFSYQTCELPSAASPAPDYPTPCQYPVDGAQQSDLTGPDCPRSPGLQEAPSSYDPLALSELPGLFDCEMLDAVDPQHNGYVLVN

**Q.** What does the source list for `C=CS(=O)(=O)c1ccc(Nc2nc(OCC3CCCCC3)c3nc[nH]c3n2)cc1` [NU6300, 6-(cyclohexylmethoxy)-N-(4-(vinylsulfonyl)phenyl)-9H-purin-2-amine]?
**A.** remaining activity at 1 µM [1]: 91%; remaining activity at 1 µM [2]: 54%; remaining activity at 1 µM [3]: 29%; remaining activity at 1 µM [4]: 101%; remaining activity at 1 µM [5]: 104%; remaining activity at 1 µM [6]: 54%; remaining activity at 1 µM [7]: 22%; remaining activity at 1 µM [8]: 14%; remaining activity at 1 µM [9]: 17%; remaining activity at 1 µM [10]: 67%; remaining activity at 0.5 µM ([11]; 4hr RT preincubation, read-out: %Remaining activity at 0.5µM NU6300 - 4hr RT preincubation): 24%; remaining activity at 0.5 µM ([11]; usual format, read-out: %Remaining activity at 0.5µM NU6300 - Usual assay format): 19%; %Remaining activity at 0.5µM NU6300 - 4hr RT preincubation ([12]; 0.5µM, 4hr RT preincubation): 29%; %Remaining activity at 0.5µM NU6300 - Usual assay format ([12]; 0.5µM, usual format): 89%; additional loss of activity after pre-incubation ([12]; 4-hr pre-incubation vs usual format, 0.5 µM): > 50%
